IC50 data for eight compounds are collected here from patent publication US10227359B2, “Tricyclic heterocycles as bet protein inhibitors” (Incyte Corporation, priority 2014, dated 2019).

Experiment [1] concerns KMS.12.BM cell line (human myeloma). Description: KMS.12.BM Cell Viability Assay. The format is cell-based. The note with it: 72 h, KMS.12.BM cells, 3 days, Cell Titer-GLO, read-out: KMS cellular IC50. On the procedure: Example B1: KMS.12.BM Cell Viability Assay
KMS.12.BM cell line (human myeloma) was purchased from JCRB (Osaka, Japan) and maintained in RPMI with 10% FBS culture medium. To measure the cytotoxic activity of the compounds through ATP quantitation, the KMS.12.BM cells are plated in the RPMI culture medium at 5000 cells/well/per 100 μL into a 96-well polystyrene clear black tissue culture plate (Greiner-bio-one through VWR, NJ), in the presence or absence of a concentration range of test compounds. After 3 days, […] Cell Titer-GLO Luminescent (Promega, Madison, Wis.) cell culture agent is added to each well for 10 min. at room temperature to stabilize the luminescent signal. This determines the number of viable cells in culture based on quantitation of the ATP present, which signals the presence of metabolically active cells. Luminescence is measured with the Top Count 384 (Packard Bioscience through Perkin Elmer, Boston, Mass.). Compound inhibition is determined relative to cells cultured with no drug and the IC50 reported as the compound concentration required for 50% cell death.

In the next experiment the test system is C-myc in KMS.12.BM cells. Description: KMS.12.BM C-myc ELISA Assay. The format is cell-based. The note with it: Homo sapiens, 2 h. On the procedure: KMS.12.BM C-myc ELISA Assay
KMS.12.BM cell line (human myeloma) was purchased from JCRB (Osaka, Japan) and maintained in RPMI with 10% FBS culture medium. To measure the C-myc inhibitory activity of the compounds, the KMS.12.BM cells are plated in the RPMI culture medium at 75000 cells/well/per 200 μL into a 96-well flat bottom polystyrene tissue culture plate (Corning through VWR, NJ), in the presence or absence of a concentration range of test compounds. After 2 h, cells are pelleted and lysed with Cell Extraction Buffer (BioSource, Carlsbad, Calif.) in the presence of protease inhibitors (Life Technologies, Grand Island, N.Y. and Sigma, St Louis, Mo.). Clarified lyses are tested in a C-myc commercial ELISA (Life Technologies, Grand Island, N.Y.). Compound inhibition is determined relative to cells cultured with no drug and the IC50 reported as the compound concentration required for 50% C-myc inhibition.
On the technique in general: An ELISA detects its analyte on a solid surface through an enzyme-linked reagent.

Consider `Cc1noc(C)c1-c1ccc2nc(N3CCC(N(C)S(C)(=O)=O)CC3)n3c2c1OC[C@@H]3c1ccccn1` [Example 22, N-{1-[(4S)-7-(3,5-dimethylisoxazol-4-yl)-4-pyridin-2-yl-4,5-dihydroimidazo[1,5,4-de][1,4]benzoxazin-2-yl]piperidin-4-yl}-N-methylmethanesulfonamide], for which the half-inhibitory concentration (IC50) (in experiment [1]; with C-myc in KMS.12.BM cells) was at most 100 nM each time.
Regarding `CCS(=O)(=O)N(C)C1CCN(c2nc3ccc(-c4c(C)noc4C)c4c3n2[C@@H](c2ccccn2)CO4)CC1` [Example 23, N-{1-[(4S)-7-(3,5-dimethylisoxazol-4-yl)-4-pyridin-2-yl-4,5-dihydroimidazo[1,5,4-de][1,4]benzoxazin-2-yl]piperidin-4-yl}-N-methylethanesulfonamide], the half-inhibitory concentration (IC50) (usually the concentration at which inhibition is half-maximal) is at most 100 nM in experiment [1] and 100 to 1000 nM in the experiment with C-myc in KMS.12.BM cells.
Take `Cc1noc(C)c1-c1ccc2nc(N3CCC(N(C)S(=O)(=O)C4CC4)CC3)n3c2c1OC[C@@H]3c1ccccn1` [Example 24, N-{1-[(4S)-7-(3,5-dimethylisoxazol-4-yl)-4-pyridin-2-yl-4,5-dihydroimidazo[1,5,4-de][1,4]benzoxazin-2-yl]piperidin-4-yl}-N-methylcyclopropanesulfonamide]: the IC50 (in experiment [1]; in the experiment with C-myc in KMS.12.BM cells) was at most 100 nM each time.
Turning to `CCCC(=O)N1CCN(c2nc3ccc(-c4c(C)noc4C)c4c3n2[C@@H](c2ccccn2)CO4)CC1` [Example 25, (4S)-2-(4-butyrylpiperazin-1-yl)-7-(3,5-dimethylisoxazol-4-yl)-4-pyridin-2-yl-4,5-dihydroimidazo[1,5,4-de][1,4]benzoxazine], the IC50 (in experiment [1]; with C-myc in KMS.12.BM cells) was at most 100 nM each time.
For `Cc1noc(C)c1-c1ccc2nc(N3CCN(C(=O)C(C)(C)C)CC3)n3c2c1OC[C@@H]3c1ccccn1` [Example 26, (4S)-7-(3,5-dimethylisoxazol-4-yl)-2-[4-(2,2-dimethylpropanoyl)piperazin-1-yl]-4-pyridin-2-yl-4,5-dihydroimidazo[1,5,4-de][1,4]benzoxazine], the IC50 (in experiment [1]; in the experiment on C-myc in KMS.12.BM cells) was at most 100 nM in each case.
As to `Cc1noc(C)c1-c1ccc2nc(N3CCN(C(=O)C4CC4)CC3)n3c2c1OC[C@@H]3c1ccccn1` [Example 27, (4S)-2-[4-(cyclopropylcarbonyl)piperazin-1-yl]-7-(3,5-dimcthylisoxazol-4-yl)-4-pyridin-2-yl-4,5-dihydroimidazo[1,5,4-de][1,4]benzoxazine], the half-inhibitory concentration (IC50) (in experiment [1]; in the experiment with C-myc in KMS.12.BM cells) was at most 100 nM each time.
`Cc1noc(C)c1-c1ccc2nc(N3CCN(C(=O)C4CCC4)CC3)n3c2c1OC[C@@H]3c1ccccn1` [Example 28, (4S)-2-[4-(cyclobutylcarbonyl)piperazin-1-yl]-7-(3,5-dimethylisoxazol-4-yl)-4-pyridin-2-yl-4,5-dihydroimidazo[1,5,4-de][1,4]benzoxazine]: the half-inhibitory concentration (IC50) in experiment [1] was at most 100 nM; with C-myc in KMS.12.BM cells it was 100 to 1000 nM.
For `COCC(=O)N1CCN(c2nc3ccc(-c4c(C)noc4C)c4c3n2[C@@H](c2ccccn2)CO4)CC1` [Example 29, (4S)-7-(3,5-dimethylisoxazol-4-yl)-2-[4-(methoxyacetyl)piperazin-1-yl]-4-pyridin-2-yl-4,5-dihydroimidazo[1,5,4-de][1,4]benzoxazine], the half-maximal inhibitory concentration (IC50) (in experiment [1]; with C-myc in KMS.12.BM cells) was at most 100 nM throughout.
